Results: PubChem BioAssay (NCI)
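Values below derive from 48-hour exposures of cells grown in 96-well plates, with endpoints linearly interpolated between the two concentrations bracketing the appropriate inhibition level. GI50 marks 50% less growth. TGI: concentration producing complete growth inhibition.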

Assays:
Assay in all cases: NCI-60 cell line screen, 48 h; in the data active = GI50 below about 0.43 µM; inactive = the rest
OVCAR-4 ovarian = system: OVCAR-4 ovarian
HOP-92 NSCLC = system: HOP-92 NSCLC
SF-295 CNS = system: SF-295 CNS
SW-620 colon = system: SW-620 colon
K-562 leukemia = system: K-562 leukemia
SK-MEL-5 melanoma = system: SK-MEL-5 melanoma
SNB-19 CNS = system: SNB-19 CNS
HT29 colon = system: HT29 colon
SR leukemia = system: SR leukemia
COLO 205 colon = system: COLO 205 colon
UO-31 renal = system: UO-31 renal
SF-539 CNS = system: SF-539 CNS
OVCAR-8 ovarian = system: OVCAR-8 ovarian
BT-549 breast = system: BT-549 breast

C[C@H]1C[C@H](C)c2ccccc2N(C)C1=Nc1ccccc1
58.3 µM: TGI (SR leukemia)
40.1 µM: TGI (HOP-92 NSCLC)
31.3 µM: TGI (SK-MEL-5 melanoma)
23.3 µM: TGI (HT29 colon)
49.7 µM: TGI (COLO 205 colon)
> 100 µM: TGI (OVCAR-4 ovarian) | TGI (SF-295 CNS) | TGI (SW-620 colon) | TGI (K-562 leukemia) | TGI (SNB-19 CNS) | TGI (UO-31 renal) | TGI (SF-539 CNS) | TGI (OVCAR-8 ovarian)

COC(=O)c1ccccc1/C=C1\Cc2cc(C)cc(C)c2C1=O
> 100 µM: TGI (SF-295 CNS) | TGI (SW-620 colon) | TGI (K-562 leukemia) | TGI (SK-MEL-5 melanoma) | TGI (SNB-19 CNS) | TGI (HT29 colon) | TGI (SR leukemia) | TGI (SF-539 CNS) | TGI (OVCAR-8 ovarian)

CCCCCCCCCCCCC(O)C1CCC(C(O)CCCCCCC(O)CCCCCCCC2=CC(C)OC2=O)O1 (stereo not given)
40.6 µM: TGI (K-562 leukemia)
44.2 µM: TGI (COLO 205 colon)
inactive: GI50 (SF-295 CNS) 17.5 µM | GI50 (SW-620 colon) 45.8 µM | GI50 (UO-31 renal) 17 µM | GI50 (BT-549 breast) 34.6 µM
> 100 µM: TGI (OVCAR-4 ovarian) | TGI (SF-295 CNS) | TGI (SW-620 colon) | TGI (SNB-19 CNS) | TGI (BT-549 breast) | TGI (OVCAR-8 ovarian)
35 µM: TGI (UO-31 renal)
72.1 µM: TGI (HOP-92 NSCLC)
22.2 µM: TGI (SK-MEL-5 melanoma)

O=C(c1cccs1)N(C(=S)N1CCN(c2ccccn2)CC1)C1CCCCC1
> 100 µM: TGI (OVCAR-4 ovarian) | TGI (HOP-92 NSCLC) | TGI (SF-295 CNS) | TGI (SW-620 colon) | TGI (K-562 leukemia) | TGI (SK-MEL-5 melanoma) | TGI (SNB-19 CNS) | TGI (HT29 colon) | TGI (SR leukemia) | TGI (UO-31 renal) | TGI (SF-539 CNS) | TGI (OVCAR-8 ovarian)
46.8 µM: TGI (COLO 205 colon)

C#C[C@]1(O)CCC2C3CCc4cc(Oc5nc(F)nc(-c6c7cc8ccccc8cc7c7n6CCS7)n5)ccc4C3CCC21C (stereo not given in full)
74.3 µM: TGI (HT29 colon)
42.2 µM: TGI (COLO 205 colon)
> 100 µM: TGI (HOP-92 NSCLC) | TGI (SF-295 CNS) | TGI (SW-620 colon) | TGI (K-562 leukemia) | TGI (SK-MEL-5 melanoma) | TGI (SNB-19 CNS) | TGI (UO-31 renal) | TGI (SF-539 CNS) | TGI (OVCAR-8 ovarian)

N=C(N)c1csc([C@@H]2O[C@H](CO)[C@@H](O)[C@H]2O)n1
> 100 µM: TGI (OVCAR-4 ovarian) | TGI (SF-295 CNS) | TGI (SW-620 colon) | TGI (K-562 leukemia) | TGI (SK-MEL-5 melanoma) | TGI (SNB-19 CNS) | TGI (SR leukemia) | TGI (UO-31 renal) | TGI (SF-539 CNS) | TGI (OVCAR-8 ovarian)

Cn1c(Nc2ccccc2)c(C=Nc2ccccc2)c(=O)n(C)c1=O
> 100 µM: TGI (OVCAR-4 ovarian) | TGI (HOP-92 NSCLC) | TGI (SF-295 CNS) | TGI (SW-620 colon) | TGI (K-562 leukemia) | TGI (HT29 colon) | TGI (UO-31 renal) | TGI (SF-539 CNS) | TGI (BT-549 breast) | TGI (OVCAR-8 ovarian)

COc1cc(C2c3cc4c(cc3OC(Nc3ccccc3)C2C)OCO4)cc(OC)c1OC (stereo not given)
14.5 µM: TGI (COLO 205 colon)
> 90.9 µM: TGI (BT-549 breast)
0.697 µM: TGI (SF-539 CNS)
> 31.6 µM: TGI (OVCAR-8 ovarian)
3.52 µM: TGI (SF-295 CNS)
> 100 µM: TGI (OVCAR-4 ovarian) | TGI (SW-620 colon) | TGI (K-562 leukemia) | TGI (SNB-19 CNS) | TGI (HT29 colon) | TGI (UO-31 renal)

C(=NCc1ccccc1)c1ccccc1-c1ccccc1C=NCc1ccccc1
> 10 µM: TGI (OVCAR-4 ovarian) | TGI (HOP-92 NSCLC) | TGI (SF-295 CNS) | TGI (SW-620 colon) | TGI (SK-MEL-5 melanoma) | TGI (SNB-19 CNS) | TGI (HT29 colon) | TGI (SR leukemia) | TGI (COLO 205 colon) | TGI (UO-31 renal) | TGI (SF-539 CNS) | TGI (OVCAR-8 ovarian)
9.76 µM: TGI (K-562 leukemia)

CC1=CC(=O)C(=O)C2=C1OC1(C2)C(C)CCC2C3(C)CCC(O)C(C)(C)C3CCC21C (stereo not given)
37.4 µM: TGI (OVCAR-4 ovarian)
44.7 µM: TGI (OVCAR-8 ovarian)
34.4 µM: TGI (UO-31 renal)
40.1 µM: TGI (HT29 colon)
33.1 µM: TGI (HOP-92 NSCLC)
32.2 µM: TGI (SNB-19 CNS)
> 100 µM: TGI (SR leukemia) | TGI (SF-539 CNS)
46.1 µM: TGI (SW-620 colon)
35.3 µM: TGI (SF-295 CNS)
54.1 µM: TGI (K-562 leukemia)
32.6 µM: TGI (COLO 205 colon)
33.4 µM: TGI (SK-MEL-5 melanoma)

CCC1=CC2Cc3nc4cc(Cl)ccc4c(N)c3C(C1)C2 (stereo not given)
17.2 µM: TGI (OVCAR-4 ovarian)
7.57 µM: TGI (K-562 leukemia)
28.8 µM: TGI (SF-539 CNS)
22.7 µM: TGI (SNB-19 CNS)
12.2 µM: TGI (SF-295 CNS)
4.05 µM: TGI (SK-MEL-5 melanoma)
6.48 µM: TGI (HOP-92 NSCLC)
35.4 µM: TGI (BT-549 breast)
20.6 µM: TGI (UO-31 renal)
10.8 µM: TGI (HT29 colon)
36 µM: TGI (SW-620 colon)
7.11 µM: TGI (COLO 205 colon)
> 49.9 µM: TGI (OVCAR-8 ovarian)

COc1ccc(NC(C)=O)cc1C1CCC(=O)N1 (stereo not given)
> 100 µM: TGI (OVCAR-4 ovarian) | TGI (HOP-92 NSCLC) | TGI (SF-295 CNS) | TGI (SW-620 colon) | TGI (K-562 leukemia) | TGI (SK-MEL-5 melanoma) | TGI (SNB-19 CNS) | TGI (HT29 colon) | TGI (COLO 205 colon) | TGI (UO-31 renal) | TGI (SF-539 CNS) | TGI (OVCAR-8 ovarian)

O=c1[nH]c(=S)[nH]n1C(=S)n1[nH]c(=S)[nH]c1=O
> 100 µM: TGI (OVCAR-4 ovarian) | TGI (HOP-92 NSCLC) | TGI (SF-295 CNS) | TGI (SW-620 colon) | TGI (K-562 leukemia) | TGI (SK-MEL-5 melanoma) | TGI (SNB-19 CNS) | TGI (HT29 colon) | TGI (SR leukemia) | TGI (COLO 205 colon) | TGI (UO-31 renal) | TGI (SF-539 CNS) | TGI (OVCAR-8 ovarian)

C=C(Br)CN(C(C)=O)C1CCCCC1
> 100 µM: TGI (OVCAR-4 ovarian) | TGI (SF-295 CNS) | TGI (SW-620 colon) | TGI (K-562 leukemia) | TGI (SK-MEL-5 melanoma) | TGI (SNB-19 CNS) | TGI (HT29 colon) | TGI (SR leukemia) | TGI (COLO 205 colon) | TGI (UO-31 renal) | TGI (SF-539 CNS) | TGI (OVCAR-8 ovarian)

N#CC(Nc1ccccc1)c1ccc(C(C#N)Nc2ccccc2)cc1 (stereo not given)
69 µM: TGI (SF-539 CNS)
> 100 µM: TGI (OVCAR-4 ovarian) | TGI (HOP-92 NSCLC) | TGI (SF-295 CNS) | TGI (SW-620 colon) | TGI (K-562 leukemia) | TGI (SK-MEL-5 melanoma) | TGI (SNB-19 CNS) | TGI (COLO 205 colon) | TGI (UO-31 renal) | TGI (BT-549 breast) | TGI (OVCAR-8 ovarian)
80.9 µM: TGI (HT29 colon)

O=C1c2c(ccc3c2CCC3)CC12Cc1cc3c(cc1C2)CCC3
> 100 µM: TGI (OVCAR-4 ovarian) | TGI (HOP-92 NSCLC) | TGI (SF-295 CNS) | TGI (SW-620 colon) | TGI (K-562 leukemia) | TGI (SK-MEL-5 melanoma) | TGI (SNB-19 CNS) | TGI (HT29 colon) | TGI (SR leukemia) | TGI (COLO 205 colon) | TGI (UO-31 renal) | TGI (SF-539 CNS) | TGI (OVCAR-8 ovarian)

OC(C/C(=N\N1CCCCC1)c1cccs1)(C(F)(F)F)C(F)(F)F
> 10 µM: TGI (OVCAR-4 ovarian) | TGI (HOP-92 NSCLC) | TGI (SF-295 CNS) | TGI (SW-620 colon) | TGI (K-562 leukemia) | TGI (SK-MEL-5 melanoma) | TGI (SNB-19 CNS) | TGI (HT29 colon) | TGI (SR leukemia) | TGI (COLO 205 colon) | TGI (UO-31 renal) | TGI (SF-539 CNS) | TGI (OVCAR-8 ovarian)

CN(C)C(=O)Nc1cc2c3c(c1)CCCN3CCC2
> 10 µM: TGI (OVCAR-4 ovarian) | TGI (HOP-92 NSCLC) | TGI (SF-295 CNS) | TGI (SW-620 colon) | TGI (K-562 leukemia) | TGI (SK-MEL-5 melanoma) | TGI (SNB-19 CNS) | TGI (HT29 colon) | TGI (SR leukemia) | TGI (COLO 205 colon) | TGI (UO-31 renal) | TGI (SF-539 CNS) | TGI (OVCAR-8 ovarian)
